The record followed here is US8623661B2, “Iron chelating agent, method for producing same, method for determining amount of iron ions and method for trapping iron ions” (National University Corporation Asahikawa Medical College, priority 2008, dated 2014).

For assay [1], the system named is iron citrate complex ammonium salt (FAC). Put plainly: Evaluation C: chelating ability in MOPS/acetonitrile solvent, FAC solution. The format is binding. The procedure: Evaluation was carried out by the following evaluation method C as to whether or not the iron chelating agent according to Examples 1 to 3 had chelating ability with iron in 3-morpholinopropanesulfonic acid (C7H15NO4S;MOPS) and acetonitrile solution as solvents used in high performance liquid chromatography (HPLC).
2.09 g of morpholinopropanesulfonic acid (C7H15NO4S; FW=209.26, Code 341-01801, Lot PX013, manufactured by Dojindo/Wako Corporation) was added to a 100 mL Erlenmeyer flask, 80 mL of ultrapure water (pure water produced by an ultrapure water production system manufactured by Millipore Corporation (Milli-Q); “Milli-Q water”) was added thereto and dissolved [pH 4.15 (24.4° C.)]. To this solution, 1N sodium hydroxide solution (1 mol/1 sodium hydroxide solution, Code 192-02175, Lot SEP7274, manufactured by Wako Pure Chemicals Industries) was added in 100 μl portions, the pH was adjusted to 7.0 and further Milli-Q water was made up to 100 mL in a measuring cylinder, whereby 100 mL of MOPS solution (pH 6.99) was prepared.
An iron chelating agent solution having an iron chelating agent concentration of 50 mM was prepared with respect to the iron chelating agent according to Examples 1 to 3, in the same manner as the preparation method of the iron chelating solution in evaluation A of the iron chelating agent.
Further, 100 mM of MOPS solution (pH6.99) prepared by the preparation method of the MOPS solution was used.
Furthermore, a stock solution of acetonitrile (C2H3N, FW=41.05, Code 347-06641, Lot WPI96, manufactured by Dojindo/Wako corporation) was used.
13.8 mL of Milli-Q water was taken in a 50 mL conical tube, 1.2 mL of each of the iron chelating agent solutions (Fe-Ser•Na (50 mM), Fe-His•Na (50 mM), Fe-Glu•Na (50 mM)) according to the iron chelating agents of Examples 1 to 3 was added, 1.0 mL of 100 mM MOPS solution was added thereto, and a further 4.0 mL of acetonitrile solution was added to produce an iron chelating solution using MOPS. The iron chelating agent solutions using MOPS and iron chelating agent according to Examples 1 to 3 were defined respectively as Fe-Ser•Na (MOPS solution)” (iron chelating agent according to
Example 1), “Fe-His•Na (MOPS solution)” (iron chelating agent according to Example 2), and “Fe-Glu•Na(MOPS solution)” (iron chelating agent according to Example 3).
An iron citrate complex ammonium salt solution (FAC solution (20 mM)) having a concentration of iron ions of 20 mM and an iron citrate complex ammonium salt solution (FAC solution (2 mM)) having a concentration of iron ions of 2 mM were prepared, in the same manner as the preparation method of the iron citrate complex ammonium solution in evaluation A of the iron chelating agent.
FAC solution (20 mM) was added to and mixed with each of the iron chelating agent solutions [Fe-Ser•Na (MOPS solution), Fe-His•Na (MOPS solution), Fe-Glu•Na (MOPS solution)] using MOPS.

Assay [2] addresses T1, transferrin iron complex (holo-Transferrin (hTf), human) (Homo sapiens, UniProt P02787).
T1 construct: purchased Sigma Corporation T0665-50MG
Put plainly: Evaluation D: capture of iron ions from transferrin iron complex. The format is binding. The procedure:
Evaluation was carried out by the following evaluation method D with respect to properties whether iron ions were captured from the transferrin iron complex (transferrin iron complex in which transferrin is chelated to iron ions) by the iron chelating agent according to Examples 1 to 2.
The iron chelating agent according to Example 1 was dissolved in 1×D-PBS (pH 7.2) to prepare an iron chelating agent solution (“Fe-Ser•Na (5 mM)”) having an iron chelating agent concentration of 5 mM, in the same manner as the preparation method of the iron chelating agent in evaluation A of the iron chelating agent.
Further, as described above, the iron chelating agent according to Example 2 was dissolved in 1×D-PBS (pH 7.2) to prepare an iron chelating agent solution (“Fe-His•Na (5 mM)”) having an iron chelating agent concentration of 5 mM.
Further, 800 mM HEDTA solution as the iron chelating agent according to Comparative Example 3 was prepared as described above. 13.76 g of crystals were taken in a 50 mL conical tube, 25 mL of Milli-Q water was added and dissolution performed, and then adjustment to pH 7.0 was performed using concentrated hydrochloric acid (35 to 37%) and the total amount was adjusted to 50 mL using Milli-Q water (HEDTA solution (800 mM)). HEDTA solution (“HEDTA solution (5 mM)”) having a concentration of HEDTA of 5 mM was prepared using 1×D-PBS (pH 7.2).
Further, 800 mM solution (pH 7.0) was prepared by using NTA2Na and NTA3Na as iron chelating agents according to Comparative Example 1 as described above. 9.4 g of NTA2Na was dissolved in Milli-Q water and the total volume was made up to 50 mL (referred to as “NTA2Na solution (800 mM)” in some cases). Meanwhile, 11.0 g of NTA3Na was dissolved in Milli-Q water and the total volume was made up to 50 mL (“NTA3Na solution (800 mM)”). NTA2Na solution (800 mM) (pH 6.3) and NTA3Na solution (800 mM) (pH 11.3) were mixed to produce 800 mM of NTA solution with pH 7.0. NTA solution (“NTA solution (5 mM)”) having a concentration of NTA of 5 mM was prepared by using 1×D-PBS (pH 7.2).
A commercially available transferrin iron complex (holo-Transferrin (hTf), human, Code T0665-50MG, Lot 095K1633, manufactured by Sigma Corporation) was dissolved in 1×D-PBS (pH 7.2) to prepare a transferrin iron complex solution having a concentration of iron ions (iron ions which are transferrin-bound iron) of 50 μM.
50 μl of 50 μM transferrin iron complex solution was taken in a 1.5 mL sample tube, 50 μl of each of iron chelating agent solutions (Fe-Ser•Na (5 mM), Fe-His•Na (5 mM), NTA solution (5 mM), HEDTA solution (5 mM)) was added thereto and left at room temperature under light shielding for 24 hours. 50 μl of various reaction liquids was taken in a centrifugal ultrafiltration unit (trade name “Amicon Ultra-4 Ultracel-30k” UFC8030, manufactured by Millipore Corporation), and 450 μl of 1×D-PBS (pH 7.2) was added thereto, centrifugation was carried out at 3,500 rpm and 20° C. for 30 minutes, and transferrin and each low molecular chelating agents were separated (first time). After centrifugation, the filtrate was discarded. 450 μl of 1×D-PBS (pH 7.2) was added again to the solution (about 50 μl) containing transferrin concentrated in a unit and centrifugation was carried out with the same conditions (second time). A solution containing transferrin concentrated in a unit was recovered after the second time of centrifugation and the absorbance at the wavelength of 466 nm was measured using a spectrophotometer (trade name “Spectrophotometer DU 640”, manufactured by Beckman Coulter).

T1 sequence (P02787 20-698, one chain of several): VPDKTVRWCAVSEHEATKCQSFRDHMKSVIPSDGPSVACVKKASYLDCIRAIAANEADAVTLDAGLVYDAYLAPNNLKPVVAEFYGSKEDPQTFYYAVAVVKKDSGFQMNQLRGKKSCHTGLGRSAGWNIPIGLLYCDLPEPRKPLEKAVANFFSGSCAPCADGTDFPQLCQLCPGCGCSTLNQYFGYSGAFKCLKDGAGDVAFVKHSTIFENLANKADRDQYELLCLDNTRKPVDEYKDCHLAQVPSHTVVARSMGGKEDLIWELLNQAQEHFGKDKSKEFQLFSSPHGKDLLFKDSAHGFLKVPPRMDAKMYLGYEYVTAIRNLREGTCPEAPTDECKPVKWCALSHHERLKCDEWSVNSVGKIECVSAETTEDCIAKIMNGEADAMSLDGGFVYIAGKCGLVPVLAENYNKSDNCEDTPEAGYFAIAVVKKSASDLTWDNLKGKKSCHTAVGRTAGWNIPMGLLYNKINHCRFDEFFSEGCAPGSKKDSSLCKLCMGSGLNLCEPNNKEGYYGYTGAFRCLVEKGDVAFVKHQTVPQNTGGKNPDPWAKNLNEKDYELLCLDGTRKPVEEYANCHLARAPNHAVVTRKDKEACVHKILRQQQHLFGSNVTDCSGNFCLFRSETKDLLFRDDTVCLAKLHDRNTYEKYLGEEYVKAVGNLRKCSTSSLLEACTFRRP

Consider `O=C(O)C(CO)NCc1ccccc1O` (stereo not drawn) [Example 1, o-[(1-carboxy-2-hydroxyethyl)-amino-methyl]-phenol], for which the “colour of the solution after mixing” value in assay [1] (FAC solution (2 mM) added to chelating agent MOPS solution (MOPS, acetonitrile)) is “dark brown-colored”. Also, in assay [1] (FAC solution (20 mM) added to chelating agent MOPS solution (MOPS, acetonitrile)), the “colour of the solution after mixing” value was “dark brown-colored”. Moreover, in assay [2] (conclusion from Table 5), the “capture of iron ions from the transferrin iron complex” value is given as “does not remove iron ions of the transferrin iron complex” and the “change of absorbance (wavelength 466 nm) after addition to the transferrin iron complex solution” value is reported as “increased”. For the same compound, in assay [2] (relative to non-treated holo-Transferrin, 24 hours with 5 mM chelator solution), the “hTf residual ratio (%)” value came to 104.32%. In addition, the “Absorbance (466 nm)” value in assay [2] (transferrin fraction after 24 hours at room temperature with 5 mM chelator solution and 50 μM transferrin iron complex solution, ultrafiltration) was 0.0772.
